Results from US20110257135A1, “TOPICAL PESTICIDE FORMULATION” (priority 2008, published 2011).

Experiments:
stoats = test: Dermal application of test solution to wild-caught stoats (Example 2 study); format: in vivo
Protocol: A test solution of approximately 100 ml was formulated, containing Vitamin D3 (cholecalciferol) resin in the solvent absolute alcohol. The concentration of cholecalciferol in the solution was about 40% w/v. The formulation was designed to kill stoats.
Wild-caught adult stoats (three male and three female) were housed in outdoor cages (60×150×90 cm). Each stoat was provided with a nest box (40×33×15 cm) containing shredded paper as nesting material. Stoats were fed a rotation of, dead day-old chicks, chicken pet mince and mutton/beef pet mince in the afternoon and had free access to water.
They were acclimatised to captivity for at least 5 months prior to being used in the trial. The stoats were lightly anaesthetised with isoflurane, weighed and then had 1.5 ml of the test solution applied to their skin and fur, using a syringe to deliver a line of solution along the spine from the nape to the base of the tail. This was a ‘high exposure’ simulation of the manner in which the delivery system would apply a toxic solution to the fur and skin of stoats.
After application of the solution, the stoats were placed into large nest boxes which were lined with paper but without bedding material, to facilitate observation. Dark Perspex lids were kept on the nest boxes to minimise disturbance of stoats by human observers. The stoats were monitored constantly through recovery from anaesthesia and then for the next three hours to record their responses to the solution on their coats and document any behaviour associated with its presence e.g. grooming, rubbing or rolling. After the three hour observation period in the boxes, stoats were returned to their outdoor cages with nesting material, food and water freely available. […] After this, observations of each stoat were recorded once daily, noting any signs of illness that are associated with cholecalciferol poisoning, e.g. stop feeding, significant body weight loss. Where any signs of illness occurred, the monitoring was to be increased to twice daily (morning and afternoon).
Feed intakes of the stoats were visually estimated for at least three days prior to dosing, i.e. ration all eaten, half eaten, quarter eaten, none eaten. Food intake was similarly noted daily after dosing through until death or 21 days (whichever occurred first). Stoats were weighed at least once a week after dosing, through to death or 21 days (which ever occurred first). Any stoats that died during the 21 day observation were to be retained for necropsy. Typical signs of poisoning (inappetance combined with significant body weight loss) were used as an alternative endpoint for the trial, with a weight loss greater than 25% of bodyweight at dosing triggering euthanasia. Stoats that survived the 21 day observation were to be euthanized.

Bush Rat (Rattus rattus) = test: Dermal application of cholecalciferol, Example 1 study (Table 1); format: in vivo; details: 1.0 ml of 20% cholecalciferol in absolute alcohol, topical; animal weight unknown
Protocol: (§1) Two formulations of the invention were prepared both containing cholecalciferol in solution with absolute alcohol. One of the formulations contained cholecalciferol in an amount of 20% w/v. The other formulation contained cholecalciferol in an amount of 40% w/v. The formulation was topically applied to several animal pest species in varying amounts and the animals were studied.

Hedgehog = test: as above; format: in vivo; details: 1.5 ml of 20% cholecalciferol in absolute alcohol, topical; animal 515 g
Protocol: as §1

[1] = system: Lab Rat (Rattus norvegicus); test: as above; format: in vivo; details: 0.5 ml of 20% cholecalciferol in absolute alcohol, topical; animal weight unknown
Protocol: as §1

Ferret = test: as above; format: in vivo; details: 2.0 ml of 40% cholecalciferol in absolute alcohol, topical; animal 902 g
Protocol: as §1

Rabbit = test: as above; format: in vivo; details: 2.0 ml of 20% cholecalciferol in absolute alcohol, topical; animal 2.6 kg
Protocol: as §1

Weasel = test: as above; format: in vivo; details: 1.5 ml of 40% cholecalciferol in absolute alcohol, topical
Protocol: as §1

[2] = Cholecalciferol concentration of test solution by normal phase liquid chromatography (stability of formulation); format: physicochemical
Protocol: To confirm the cholecalciferol concentration present and enable accurate exposure calculations when the test solution was applied to the stoats, a sub-sample (approximately 20 ml) of this solution was taken for analysis. Cholecalciferol concentration was determined by taking a sample of liquid which was warmed, mixed and 0.2 g weighed into a volumetric flask 30 ml of toluene was added, and this solution was sonicated without heating and made up to volume. The solution was diluted with hexane/isopropyl alcohol, filtered and analysed against an internal standard by normal phase liquid chromatography.
The test solution was analysed as containing 30% cholecalciferol with an uncertainty of 5%. This was lower than the nominal 40% cholecalciferol in the solution indicated by the analysis carried out the day after the solution was prepared. The assay was carried out on a sub-sample of solution taken 7 days after preparation, and also following the extraction of 6×1.5 ml aliquots of the solution for application to stoats.
This may mostly have occurred on exposure to air when aliquots of solution were drawn from the container for application to the stoats. Cholecalciferol preparations are sensitive to light and exposure to air, with oxidation and inactivation occurring over a few days in the presence of moist air. However, it is noted that even at a 30% concentration, the solution contained sufficient cholecalciferol to deliver an effective lethal dose to all six stoats in 1.5 ml.

Rattus rattus (bush rat) = test: Topical administration to live captured bush rats (Example 4 study); format: in vivo
Protocol: Three animals of the species Rattus rattus (also known as the bush rat) were live captured. They were placed in separate enclosures with on demand food and water supplies, and nesting material of dry hay. After 14 days of acclimatization to these conditions, the animals were each treated with a formulation comprising a solution of 33% cholecalciferol (resin form) in the glycol ether, DGMEE. Each animal was given a dose of about 3 ml of the formulation by topical administration to the back of the animal using a calibrated syringe. Each of the animals died within six days of receiving the formulation. The first rat, a male weighing 122 grams, weighed 106 grams at death. The second rat, a female weighing 108 grams, weighed 98 grams at death. The third rat, a male weighing 97 grams, weighed 90 grams at death.

laboratory rats = test: Initial topical test of 4% w/v formulation on laboratory rats; format: in vivo; details: 4% w/v cholecalciferol in absolute alcohol, 0.5 ml per animal
From the text: (§2) A formulation of the present invention was initially prepared and tested on mice and laboratory rats to determine the viability of the invention. The formulation contained cholecalciferol in an amount of 4% w/v and absolute alcohol. […] These studies are described in the following examples.

weasels = test: Proof of concept trial on wild weasels (Example 3 study); format: in vivo
From the text: Three wild weasels were caught for a proof of concept trial to determine if the formulation of the invention would be effective as a humane method of killing these pests. The weasels were caged separately in individual waterproof, roofed, wired enclosures of approximately 1 m^2. The animals were fed on raw meat, by simply placing the meat on a wire hooked into the side of the cages. In eating the animals simply pulled on and chewed the meat. Drinking water was available. Within each enclosure was a small box of 25×25 cm with a mesh roof. A vertical sliding door could be removed to provide an entrance to the enclosure and the enclosure was half filled with nesting material of hay. It was observed that the animals covered themselves in the hay and made pathways through it.
Each of the animals was then treated with a formulation comprising 32% cholecalciferol (resin form) in solution with the glycol ether, DGMEE, and observations were made.
The first animal, a male weasel weighing 157 grams, was treated by application of 1 ml of the formulation using a syringe to the back of the animal. This weasel died within 44 hours of application of the formulation.
The second animal, a female weasel weighing 94 grams, was treated using an eradication apparatus as described above. The electronically activated apparatus was placed into the cage of the animal. The apparatus comprised of a tunnel, including a sensing means comprising two pairs of sensors, and a tracking card to record the footprints of the weasel to establish that the animal had passed through the tunnel. An automatic dispensing means was operatively connected to the tunnel, so that when the weasel passed through the tunnel and the two pairs of sensors were covered ,simultaneously, the dispensing , means was automatically activated to deliver the formulation to the animal. In this manner, approximately 0.9 ml of the cholecalciferol formulation was applied to the back of the weasel as it passed through the tunnel of the apparatus. It was observed that some of the formulation was present on the tracking card so the weasel had not received the total volume of the formulation. The weasel died approximately 50 hours after receiving the formulation.
The third animal, a male weasel weighing 54 grams was treated by squirting approximately 1 ml of the formulation onto the back of the animal using a hand held syringe. This weasel died within about 39 hours of application of the formulation.

mice = test: Initial topical test of 4% w/v formulation on mice; format: in vivo; details: 4% w/v cholecalciferol in absolute alcohol, 0.5 ml per animal
From the text: as §2

[3] = Stoat Female 407, 193 g at dosing, 2331 mg/kg dermal
[4] = Stoat Male 391, 235 g at dosing, 1914 mg/kg dermal
[5] = Stoat Male 415, 382 g at dosing, 1178 mg/kg dermal
[6] = Stoat Male 419, 359 g at dosing, 1253 mg/kg dermal

## C=C1CC[C@H](O)C/C1=C/C=C1\CCC[C@]2(C)[C@@H]([C@H](C)CCCC(C)C)CC[C@@H]12 [cholecalciferol]
stoats; Stoat Female 407, 2331 mg/kg dermal
  % weight loss at death: 46%
stoats; Stoat Female 407, 193 g at dosing, 1.5 ml test solution, estimated exposure 2331 mg/kg
  Fate (days after dosing): died (12)
stoats; [3]
  Weight at day 7: 151 g
  Weight at day 12: 112 g
stoats; Stoat Female 413, 2486 mg/kg dermal
  % weight loss at death: 44%
stoats; Stoat Female 413, 181 g at dosing, 1.5 ml test solution, estimated exposure 2486 mg/kg
  Fate (days after dosing): died (11)
stoats; Stoat Female 413, 181 g at dosing, 2486 mg/kg dermal
  Weight at day 7: 120 g
stoats; Stoat Female 414, 2205 mg/kg dermal
  % weight loss at death: 13%
stoats; Stoat Female 414, 204 g at dosing, 1.5 ml test solution, estimated exposure 2205 mg/kg
  Fate (days after dosing): died (4)
stoats; Stoat Male 391, 1914 mg/kg dermal
  % weight loss at death: 30%
stoats; Stoat Male 391, 235 g at dosing, 1.5 ml test solution, estimated exposure 1914 mg/kg
  Fate (days after dosing): euthanized (12)
stoats; [4]
  Weight at day 7: 188 g
  Weight at day 12: 166 g
stoats; Stoat Male 415, 1178 mg/kg dermal
  % weight loss at death: 36%
stoats; [5]
  Weight at day 7: 296 g
  Weight at day 12: 254 g
stoats; Stoat Male 415, 382 g at dosing, 1.5 ml test solution (nominal 40%, assayed 30%, absolute alcohol), estimated exposure 1178 mg/kg
  Fate (days after dosing): euthanized (12)
stoats; Stoat Male 419, 1253 mg/kg dermal
  % weight loss at death: 37%
stoats; [6]
  Weight at day 7: 277 g
  Weight at day 12: 253 g
stoats; Stoat Male 419, 359 g at dosing, 1.5 ml test solution, estimated exposure 1253 mg/kg
  Fate (days after dosing): euthanized (12)
stoats; from the first night after dosing, generally eating less than half of rations each day
  inappetance (stop feed effect): All six stoats showed inappetance
stoats; lower end of exposure range in stoats, test solution in absolute alcohol
  effective lethal dermal exposure (in excess of or equal to a dermal LD99 value): 1178 mg/kg
stoats; morning after return to outdoor cages, 1.5 ml test solution
  cages with vomitus present: three of the 6
stoats; six stoats, over 12 days after dosing, 1.5 ml test solution
  mortality (number of stoats): three
stoats; stoats that died
  necropsy findings: no gross evidence of calcification/mineralisation or lung damage
stoats; three male stoats, 1.5 ml test solution, 1178-1914 mg/kg
  time of euthanasia after dosing (weight loss endpoint), male stoats: 12 days
Bush Rat (Rattus rattus)
  Observations: time to death: within 40 hours
Hedgehog
  Observations: time to death: within 25 hours
[1]
  Observations: time to death: within 72 hours
Ferret
  Observations: time to death: within 48 hours
Rabbit
  Observations: time to death: within 2 days
Weasel; animal 116 g
  Observations: time to death: within 43 hours
Weasel; animal 139 g
  Observations: time to death: within 36 hours
[2]; analysis carried out the day after the solution was prepared, absolute alcohol
  cholecalciferol concentration of test solution (nominal): 40%
[2]; during the 7 days from preparation to application
  change of cholecalciferol concentration in test solution: slight decline
[2]; sub-sample taken 7 days after preparation, after extraction of aliquots, uncertainty of 5%, absolute alcohol
  cholecalciferol concentration of test solution: 30%
Rattus rattus (bush rat); first rat, male weighing 122 grams, about 3 ml of 33% cholecalciferol in DGMEE
  weight at death: 106 grams
Rattus rattus (bush rat); over the first few days of treatment, about 3 ml of 33% cholecalciferol in DGMEE
  hair loss at application site: hair loss was observed on all of the animals
Rattus rattus (bush rat); second rat, female weighing 108 grams, about 3 ml of 33% cholecalciferol in DGMEE
  weight at death: 98 grams
Rattus rattus (bush rat); third rat, male weighing 97 grams, about 3 ml of 33% cholecalciferol in DGMEE
  weight at death: 90 grams
Rattus rattus (bush rat); three bush rats, about 3 ml of 33% cholecalciferol (resin) in DGMEE, topical to the back
  time to death: six
Laboratory rats
  death of the animal: death of the animal occurred within a reasonably short time frame
weasels; female weasel 94 grams, approximately 0.9 ml of 32% cholecalciferol in DGMEE
  appetite after application: lost its appetite
weasels; female weasel 94 grams, approximately 0.9 ml of 32% cholecalciferol in DGMEE via eradication apparatus, not total volume received
  time to death: approximately 50 hours
weasels; male weasel 54 grams, approximately 1 ml of 32% cholecalciferol in DGMEE by hand held syringe
  time to death: ≤ 39 h
weasels; male weasel 157 grams, 1 ml of 32% cholecalciferol (resin) in DGMEE by syringe to the back
  time to death: ≤ 44 h
weasels; male weasel 157 grams, 1 ml of 32% cholecalciferol in DGMEE
  food consumption after application: ate only a small quantity of what it had previously been consuming
mice
  death of the animal: death of the animal occurred within a reasonably short time frame
